{"source": "patent US6676932B2", "about": "“Ultraviolet absorbent, photostabilizer, ultraviolet ray-absorbing composition, photostabilized composition and external preparation for skin” (Shiseido Co., Ltd., priority 2001, dated 2004)", "key": {"[1]": {"experiment": "Drug stabilization effect blended with sequestering agent (Test Examples 372 to 391)", "type": "physicochemical", "parameters": "key to Appearance (visual determination): ◯: no change; Δ: almost no change; x: change", "conditions": "drug Glycyrrhizinic acid dipotassium 0.05, photostabilizer blend amount 0.03, daylight exposure (80 MJ)", "procedure,_shortened": "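Compositions combining the pyridazine derivative with sequestering agents were exposed to daylight (80 MJ). Appearance was judged visually, and drug remaining ratio was measured by liquid chromatography before and after exposure.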"}, "[2]": {"experiment": "Drug stabilization effect under daylight exposure (Test Examples 182 to 211)", "type": "physicochemical", "parameters": "key to Appearance (visual determination): ◯: no change; Δ: almost no change; x: change", "conditions": "photostabilizer 0.05 wt %, daylight exposure (80 MJ); for Remaining ratio (%): liquid chromatography", "experimental": "For observation of the change of the appearance of each test sample (determination based on visual observation) and the measurement of the remaining ratio by liquid chromatography before and after daylight exposure (80 MJ), the test sample was prepared."}, "skin [3]": {"test_system": "skin", "experiment": "Test of skin irritation: 24-hour occlusion patch test (Test Example 3 ii)", "type": "in vivo, human", "conditions": "10 wt % ultraviolet absorbent", "experimental": "(§1) The same samples as in the Test Example 2 were used (at a 10 wt % amount of an ultraviolet absorbent).\n20 Healthy male and female volunteers per one group were carried out in a 24-hour occlusion patch test, using a fin chamber on forearm curves. Assessment was done on the basis of the following assessment standards.\nMean score was determined for the assessment on the basis of the following standards.\n(§2) ◯: mean score of more than 0 to less than 1.\n(§3) Δ: mean score of 1 or more to less than 2.\n(§4) x: mean score of 2 or more."}, "[4]": {"experiment": "Dye stabilization effect in blend with sequestering agents (Test Examples 212 to 275)", "type": "physicochemical", "conditions": "daylight exposure (80 MJ)", "procedure,_shortened": "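Colour difference (ΔE) measured by spectrophotometer in Lab coordinates before and after daylight exposure (80 MJ), relative to pre-exposure values (L1, a1, b1); appearance change also assessed visually.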"}, "[5]": {"experiment": "Stabilization effect on perfume under daylight exposure (Test Examples 92 to 181)", "type": "physicochemical", "parameters": "key: ◯: no change; Δ: almost no change; x: change", "conditions": "daylight exposure (80 MJ)", "experimental": "Each test sample was prepared for observation of the change of the odor of the test sample (determined by perfume coordinator) before and after daylight exposure (80 MJ)."}, "[6]": {"experiment": "Dye stabilization effect under daylight exposure (Test Examples 6-91)", "type": "physicochemical", "parameters": "key to Δ E: color difference ΔE in Lab vs. color before daylight exposure; key to Appearance (visual determination): ◯: no change; Δ: almost no change; x: change", "conditions": "photostabilizer 0.05 wt %, daylight exposure (80 MJ)", "procedure,_shortened": "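Test samples exposed to daylight to 80 MJ; appearance judged visually. Colour measured by spectrophotometer in Lab coordinates, with ΔE calculated relative to pre-exposure values (L1, a1, b1).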"}, "sunburn": {"test_system": "sunburn", "experiment": "Ultraviolet preventive effect, application test on beach in summer (Test Example 2)", "type": "in vivo, human", "experimental": "An application test was carried out on beach in summer. Equal volumes of samples were individually coated on back halves of subjects. After exposure to direct daylight, the degree of sunburn was assessed according to the following assessment standards. Each group consists of 10 subjects.\nProminently effective: none or almost no sunburn symptom was observed.\nEffective: light sunburn symptom was observed.\nIneffective: strong sunburn symptom was observed.\n⊚: prominently effective or effective for 80% or more of the subjects.\n◯: prominently effective or effective for 50% or more to less than 80% of the subjects.\nΔ: prominently effective or effective for 30% or more to less than 50% of the subjects.\nx: prominently effective or effective for less than 30% of the subjects.\nThe aqueous phase and the alcohol phase were separately prepared and then mixed together.\nPropylene glycol was added to and dissolved in ion exchange water. The resulting solution was retained at 70° C. under heating (aqueous phase). Other ingredients were mixed […]. The resulting mixture was melted under heating and retained at 70° C. (oil phase). The oil phase was added to the aqueous phase, for preliminary emulsification with a homomixer to homogeneity. Under thorough mixing, subsequently, the mixture was cooled to 30° C."}, "skin [7]": {"test_system": "skin", "experiment": "Test of skin irritation: continuous application test (Test Example 3 i)", "type": "in vivo, human", "conditions": "10 wt % ultraviolet absorbent, twice daily for 4 weeks", "experimental": "as §1\nContinuous application test was carried out for 20 healthy subjects per one group. An appropriate amount of each of the samples was coated twice daily for 4 weeks. The effects were assessed according to the following assessment standards.\nMean score was calculated for the determination of the effect on the basis of the following standards.\nas §2, §3, §4"}, "[8]": {"conditions": "drug Dipotassium glycyrrhizinate 0.05 wt %"}, "[9]": {"conditions": "drug dibutylhydroxytoluene 0.01 wt %"}, "[10]": {"conditions": "drug dl-α-tocopherol 2-L-ascorbic acid phosphate diester potassium salt 0.01 wt %"}, "[11]": {"conditions": "dye Blue 1 (Brilliant Blue FCF) 0.0001 wt %"}, "[12]": {"conditions": "dye Green 3 (Fast Green FCF) 0.001 wt %"}, "[13]": {"conditions": "dye Red 227 (Acid Fuchsine D) 0.0001 wt %"}, "[14]": {"conditions": "dye Yellow 5 (Sunset Yellow FCF) 0.001 wt %"}, "[15]": {"conditions": "dyes Red 106 (Acid red) 0.00001 + Yellow 203 (Quinoline Yellow WS) 0.0001 wt %"}, "[16]": {"conditions": "dyes Red 213 (Rhodamine B) 0.00001 + Blue 1 (Brilliant Blue FCF) 0.00001 wt %"}, "[17]": {"conditions": "dyes Red 401 (Violanin R) 0.0001 + Blue 1 (Brilliant Blue FCF) 0.00001 wt %"}}}
{"compound": "Oc1cc(N2CCOCC2)cnn1", "note": "[3-Hydroxy-5-morpholinopyridazine, 3-hydroxy-5-morpholinopyridazine]", "values": [{"measurement": "Appearance (visual determination)", "setting": "[1]; no sequestering agent", "value": "◯"}, {"measurement": "Appearance (visual determination)", "setting": "[1]; with sodium metaphosphate 0.03", "value": "◯"}, {"measurement": "Appearance (visual determination)", "setting": "[2]; [8]", "value": "◯"}, {"measurement": "Remaining ratio (%)", "setting": "[2]; [8]", "value": 98.9, "unit": "%"}, {"measurement": "Appearance (visual determination)", "setting": "[2]; [9]", "value": "◯"}, {"measurement": "Remaining ratio (%)", "setting": "[2]; [9]", "value": 98.8, "unit": "%"}, {"measurement": "Appearance (visual determination)", "setting": "[2]; [10]", "value": "◯"}, {"measurement": "Remaining ratio (%)", "setting": "[2]; [10]", "value": 98.0, "unit": "%"}, {"measurement": "Determination (skin reaction, patch test)", "setting": "skin [3]; cream", "value": "⊚ (mean score of 0)"}, {"measurement": "Determination (skin reaction, patch test)", "setting": "skin [3]; lotion", "value": "⊚ (mean score of 0)"}, {"measurement": "Δ E", "setting": "[4]; dye Yellow 5 (Sunset Yellow FCF) 0.0001, photostabilizer 0.01, no sequestering agent", "value": 0.61}, {"measurement": "Δ E", "setting": "[4]; dye Yellow 5 (Sunset Yellow FCF) 0.0001, photostabilizer 0.01, with ethylenediaminetetraacetate trisodium 0.03", "value": 0.52}, {"measurement": "Δ E", "setting": "[4]; dye Yellow 5 (Sunset Yellow FCF) 0.0001, photostabilizer 0.01, with sodium metaphosphate 0.03", "value": 0.55}, {"measurement": "Δ E", "setting": "[4]; dye Yellow 5 (Sunset Yellow FCF) 0.0001, photostabilizer 0.01, with sodium polyphosphate 0.03", "value": 0.46}, {"measurement": "Δ E", "setting": "[4]; dyes Red 227 (Acid Fuchsine D) 0.0001 + Yellow 203 (Quinoline Yellow WS) 0.0001, no sequestering agent, photostabilizer blend amount 0.01", "value": 1.68}, {"measurement": "Δ E", "setting": "[4]; dyes Red 227 (Acid Fuchsine D) 0.0001 + Yellow 203 (Quinoline Yellow WS) 0.0001, with sodium metaphosphate 0.02, photostabilizer blend amount 0.01", "value": 0.98}, {"measurement": "odor determination", "setting": "[5]; base perfume Muge, photostabilizer 0.05 wt %", "value": "◯"}, {"measurement": "odor determination", "setting": "[5]; base perfume Spicy, photostabilizer 0.2 wt %", "value": "◯"}, {"measurement": "odor determination", "setting": "[5]; natural perfume Jasmine oil, photostabilizer 0.05 wt %", "value": "◯"}, {"measurement": "odor determination", "setting": "[5]; natural perfume Lavender oil, photostabilizer 0.1 wt %", "value": "◯"}, {"measurement": "odor determination", "setting": "[5]; natural perfume Ylang ylang oil, photostabilizer 0.2 wt %", "value": "◯"}, {"measurement": "odor determination", "setting": "[5]; synthetic perfume Citral, photostabilizer 0.1 wt %", "value": "◯"}, {"measurement": "odor determination", "setting": "[5]; synthetic perfume Linalool, photostabilizer 0.05 wt %", "value": "◯"}, {"measurement": "odor determination", "setting": "[5]; synthetic perfume Linalyl acetate, photostabilizer 0.1 wt %", "value": "◯"}, {"measurement": "odor determination", "setting": "[5]; synthetic perfume Rose oxide, photostabilizer 0.2 wt %", "value": "◯"}, {"measurement": "Appearance (visual determination)", "setting": "[6]; [11]", "value": "◯"}, {"measurement": "Δ E", "setting": "[6]; [11]", "value": 1.31}, {"measurement": "Appearance (visual determination)", "setting": "[6]; [12]", "value": "◯"}, {"measurement": "Δ E", "setting": "[6]; [12]", "value": 0.48}, {"measurement": "Appearance (visual determination)", "setting": "[6]; [13]", "value": "◯"}, {"measurement": "Δ E", "setting": "[6]; [13]", "value": 0.52}, {"measurement": "Appearance (visual determination)", "setting": "[6]; [14]", "value": "◯"}, {"measurement": "Δ E", "setting": "[6]; [14]", "value": 0.52}, {"measurement": "Appearance (visual determination)", "setting": "[6]; [15]", "value": "◯"}, {"measurement": "Δ E", "setting": "[6]; [15]", "value": 0.85}, {"measurement": "Appearance (visual determination)", "setting": "[6]; [16]", "value": "◯"}, {"measurement": "Δ E", "setting": "[6]; [16]", "value": 1.08}, {"measurement": "Appearance (visual determination)", "setting": "[6]; [17]", "value": "◯"}, {"measurement": "Δ E", "setting": "[6]; [17]", "value": 0.44}, {"measurement": "Ultraviolet prevention effect", "setting": "sunburn; cream, blend amount 0.0005 wt %", "value": "Δ (prominently effective or effective for 30% or more to less than 50% of the subjects)"}, {"measurement": "Ultraviolet prevention effect", "setting": "sunburn; cream, blend amount 0.001 wt %", "value": "◯ (prominently effective or effective for 50% or more to less than 80% of the subjects)"}, {"measurement": "Ultraviolet prevention effect", "setting": "sunburn; cream, blend amount 0.01 wt %", "value": "⊚ (prominently effective or effective for 80% or more of the subjects)"}, {"measurement": "Ultraviolet prevention effect", "setting": "sunburn; cream, blend amount 1 wt %", "value": "⊚ (prominently effective or effective for 80% or more of the subjects)"}, {"measurement": "Ultraviolet prevention effect", "setting": "sunburn; cream, blend amount 5 wt %", "value": "⊚ (prominently effective or effective for 80% or more of the subjects)"}, {"measurement": "Ultraviolet prevention effect", "setting": "sunburn; cream, blend amount 10 wt %", "value": "⊚ (prominently effective or effective for 80% or more of the subjects)"}, {"measurement": "Ultraviolet prevention effect", "setting": "sunburn; cream, blend amount 20 wt %", "value": "⊚ (prominently effective or effective for 80% or more of the subjects)"}, {"measurement": "Ultraviolet prevention effect", "setting": "sunburn; lotion, blend amount 0.0005 wt %", "value": "Δ (prominently effective or effective for 30% or more to less than 50% of the subjects)"}, {"measurement": "Ultraviolet prevention effect", "setting": "sunburn; lotion, blend amount 0.001 wt %", "value": "◯ (prominently effective or effective for 50% or more to less than 80% of the subjects)"}, {"measurement": "Ultraviolet prevention effect", "setting": "sunburn; lotion, blend amount 0.01 wt %", "value": "⊚ (prominently effective or effective for 80% or more of the subjects)"}, {"measurement": "Ultraviolet prevention effect", "setting": "sunburn; lotion, blend amount 1 wt %", "value": "⊚ (prominently effective or effective for 80% or more of the subjects)"}, {"measurement": "Ultraviolet prevention effect", "setting": "sunburn; lotion, blend amount 5 wt %", "value": "⊚ (prominently effective or effective for 80% or more of the subjects)"}, {"measurement": "Ultraviolet prevention effect", "setting": "sunburn; lotion, blend amount 10 wt %", "value": "⊚ (prominently effective or effective for 80% or more of the subjects)"}, {"measurement": "Ultraviolet prevention effect", "setting": "sunburn; lotion, blend amount 20 wt %", "value": "⊚ (prominently effective or effective for 80% or more of the subjects)"}, {"measurement": "Determination (skin reaction, continuous application test)", "setting": "skin [7]; cream", "value": "⊚ (mean score of 0)"}, {"measurement": "Determination (skin reaction, continuous application test)", "setting": "skin [7]; lotion", "value": "⊚ (mean score of 0)"}]}
